Test results: PubChem BioAssay (NCI)
Several values for one entry are separate records, joined by “and”; a condition that tells them apart may be missing. Equal values may be shown once.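 Growth conditions: 96-well plates. Treatment: test compound, 48 hours, 5 concentrations. Analysis: linear interpolation between bracketing concentrations; unreached endpoints set to highest concentration. The concentration for 50% growth inhibition is given as GI50. TGI marks complete inhibition of growth.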

What follows are compounds tested on MDA-MB-468 breast (assay: inhibition of tumour cell growth, NCI panel, 48 h).

Structure (SMILES)	GI50	TGI
CN(CCO)C1CCN(c2ccc(Nc3ncc4c5ccnc(F)c5n(C5CCCC5)c4n3)nc2)CC1	15.4 µM	33.2 µM
COC(=O)c1cc2cc(-c3ccc(OC)cc3)cnc2[nH]1	0.744 µM	
C=CCOC1=CC(=O)c2ccccc2C1=O	2.08 µM	5.14 µM
O=NNc1ccc(S(=O)c2ccccc2)cn1 (stereo not given)	76.2 µM	> 100 µM
CCCCN(CCCC)CC(O)c1ccc(OCc2ccccc2)c2ccccc12 (stereo not given)	2.17 µM	6 µM
O=C(Nc1cccc(-n2cc(-c3ccncc3)c(-c3ccc(Cl)c(O)c3)n2)c1)Nc1cccc(C(F)(F)F)c1	0.98 µM	7.83 µM
C/C=C(/C(=C/C)c1ccc(O)cc1)c1ccc(O)cc1	2 µM	6.85 µM
CN(C)c1ccc(O)c2c1CC1CC3C(N(C)C)C(=O)C(C(N)=O)=C(O)C3(O)C(=O)C1=C2O (stereo not given)	11 µM	57.7 µM
CCCCC/C=C/C(=O)CCc1ccc(O)c(OC)c1	3.18 µM	13 µM
CO[C@@H](C(=O)N1Cc2[nH]nc(NC(=O)c3ccc(N4CCN(C)CC4)cc3)c2C1)c1ccccc1	0.585 µM and 0.13 µM	5.28 µM and > 10 µM
C=C1C(=O)O[C@H]2[C@H]1CC/C(COC(=O)NCc1[nH]nc3ccccc13)=C\CC[C@@]1(C)O[C@@H]21	0.736 µM	2.72 µM
CCC(CC)COC(=O)[C@H](C)N[P@](=O)(OC[C@H]1O[C@@](C#N)(c2ccc3c(N)ncnn23)[C@H](O)[C@@H]1O)Oc1ccccc1	0.491 µM	3.83 µM
O=[N+]([O-])c1cc([N+](=O)[O-])c(N2CCCC2)cc1NN=C(c1ccc(O)cc1)c1ccc(O)cc1	2.18 µM	10.1 µM
CCN(CCCNC(=O)Cc1cc(=O)oc2cc(N(C)C)ccc12)CCNc1ccnc2cc(Cl)ccc12	1.96 µM	6 µM
CN1CCN(Cc2ccc(NC(=O)c3cncc(C#Cc4cnc5ccc(OCC6(C)COC6)nn45)c3)cc2C(F)(F)F)CC1	0.12 µM	0.36 µM
Nc1[nH]c(=O)nc2c1cnn2Cc1ccccc1	> 100 µM	> 100 µM
COc1ccc(-c2cc3c(OC)c(OC)c(OC)cc3oc2=O)cc1	2.21 µM	8.46 µM
NS(=O)(=O)N(c1cc(C(F)(F)F)cc(C(F)(F)F)c1)C1CCN(Cc2ccc(C(F)(F)F)cc2)CC1	5.65 µM	12 µM
CC(C)(Oc1ccc(Cl)cc1)C(=O)NC1C2CC3CC1CC(NS(C)(=O)=O)(C3)C2 (stereo not given)	> 100 µM	> 100 µM
COc1cc(-c2cc(/C=C3\C(=O)Nc4ccc(Cl)cc43)[nH]n2)cc(OC)c1OC	5.23 µM	88.8 µM
Cc1ccc(NS(=O)(=O)c2ccc(-c3cnc(C4CC4)o3)cc2)cc1C	0.231 µM	2.33 µM
NS(=O)(=O)c1ccc(Nc2ncc(-c3ccccc3)o2)cc1	> 25 µM	> 25 µM
Cn1cc(C2=C(c3cn(C)c4cc(C(=O)O)ccc34)C(=O)NC2=O)c2ccccc21	> 25 µM	> 25 µM
CN1CCN(Cc2ccc(NC(=O)c3nc4ccc5[nH]ncc5c4c4c3CCCC4)cc2C(F)(F)F)CC1	0.797 µM	1.6 µM
Oc1ccc(/C=C/c2ccc(O)cc2)cc1	10.7 µM	> 100 µM
CCSc1ccc2c(c1)N(CCCN1CCN(C)CC1)c1ccccc1S2	1.73 µM	3.38 µM
CCCCCCCCCCCCCCCCNC(=O)OC(C)C	4.01 µM	10.1 µM

Structure (SMILES)	GI50	TGI
C=C1C(=O)O[C@H]2[C@H]1CC/C(COC(=O)NCc1ccc(Cn3c(=O)sn(CCI)c3=O)cc1)=C\CC[C@@]1(C)O[C@@H]21	1.25 µM	2.81 µM
CNC1CCc2c(sc(NC(=O)c3ccc(C(C)(C)C)cc3)c2C(N)=O)C1 (stereo not given)	1.84 µM	3.58 µM
COc1cccc(-n2ncc3c(N/N=C/c4ccc(F)cc4)ncnc32)c1	> 25 µM	> 25 µM
CCN(CC)CCCN1C(=O)c2c(c(C)c3c(oc4ccc(O)cc43)c2C)C1=O	1.65 µM	3.72 µM
N=C1N(c2ccccc2)C(=S)C(=Nc2ccccc2)N1c1ccccc1	7.14 µM	20.8 µM
Cc1ccc2c(NCCCN(C)C)c3c(C)nn(C)c3nc2c1	2.71 µM	10.2 µM
Cc1nn(-c2ccccc2)c(-n2ccnc2)c1/C=N/Nc1nc(-c2ccc(Cl)c(Cl)c2)cs1	1.47 µM	7.92 µM
Nc1nc2cc(-c3ccc4ncc(C(=O)N5CCOCC5)n4c3)ccc2o1	3.82 µM	45.5 µM
CSc1nn2c(-c3ccc4ccccc4c3)ccnc2c1C#N	2.87 µM	18.3 µM
Cc1nnc([S-])o1.[Au+].c1ccc([PH+](c2ccccc2)c2ccccc2)cc1	1.38 µM	2.8 µM
COC(=O)c1c2c(c(C)[n+]([O-])c1C)C(=O)C(NCc1cccc(Cl)c1)=CC2=O	0.896 µM	2.5 µM
CCNC(=O)N1CCc2cc(OC)c(OCCc3ccc(OC)nc3)cc2C1c1ccc(C)cc1C (stereo not given)	1.59 µM	7.58 µM
COc1ccc(/C=C2\CS(=O)(=O)C/C(=C\c3ccc(OC)cc3)C2=O)cc1	1.59 µM	5.18 µM
COC(=O)[C@@H]1CCCN1C(=O)[C@@H]1CCCN1C(=O)[C@H](Cc1ccccc1)NC(=S)Nc1cc(C(F)(F)F)cc(C(F)(F)F)c1	2.48 µM	9.62 µM
O=C(C(Br)C(Br)c1ccccc1)C(Br)C(Br)c1ccccc1 (stereo not given)	1.04 µM	3.09 µM
O=c1ccc(N=Nc2ccccc2)ccc1Cl	2.46 µM	10.8 µM
COc1ccc(CN2CCc3c(Sc4ccccc4)nc(N)nc3C2=O)c(OC)c1	3.51 µM	14 µM
CCOC(=O)c1ccc(NC(=O)Nc2nccs2)cc1	0.0467 µM	> 100 µM
COc1ccc(-c2cnoc2-c2ccc(OC)cc2O)cc1	0.844 µM	5.46 µM
CC(C)(C)CC(C)(C)c1ccc(OCCSC(=N)N)cc1	0.358 µM	1.9 µM
O=C1c2ccc3c4c(ccc(c24)C(=O)N1CCCNCc1ccccc1F)C(=O)N(CCCNCc1ccccc1F)C3=O	0.143 µM	0.29 µM
CCCCSSC(=S)N(CC)CC	65.1 µM	> 100 µM
C=C(C)[C@@H]1CC[C@]2(COC(C)=O)CC[C@]3(C)[C@H](CC[C@@H]4[C@@]5(C)CCCN(C(C)=O)C(C)(C)[C@@H]5CC[C@]43C)[C@@H]12	1.53 µM	3 µM
CCC(/C=C(C)/C=C/C(=O)c1c(O)c(-c2ccc(O)cc2)c[nH]c1=O)CO (stereo not given)	5.24 µM	24.4 µM
COc1cc(-c2cncn2-c2ccc(-c3nc4ccc(F)cc4s3)cc2)ccc1F	11.1 µM	> 100 µM
CN1CCN(Cc2ccc(NC(=O)c3cnc(F)c(C#Cc4cnc(N)c5ncccc45)c3)cc2C(F)(F)F)CC1	0.386 µM	7.68 µM
